Test results published in patent publication US5942523A, “Compounds which are selective antagonists of the human NK3 receptor and their use as medicinal products and diagnostic tools” (Sanofi, priority 1994, dated 1999).
Residues, ends and D or L forms follow the SMILES beside them.

Tests used:
human NK3 receptor = target: T1, human NK3 receptor (Homo sapiens, UniProt P29371); test: binding of [^125 I]His[MePhe^7 ]NKB to the cloned human NK3 receptors expressed by CHO cells; conditions: from comparison of Ki values for human NK3 and other tachykinin receptors
T1 construct: expressed in transfected cells; host or cells: CHO cells
T1 sequence (P29371 1-465): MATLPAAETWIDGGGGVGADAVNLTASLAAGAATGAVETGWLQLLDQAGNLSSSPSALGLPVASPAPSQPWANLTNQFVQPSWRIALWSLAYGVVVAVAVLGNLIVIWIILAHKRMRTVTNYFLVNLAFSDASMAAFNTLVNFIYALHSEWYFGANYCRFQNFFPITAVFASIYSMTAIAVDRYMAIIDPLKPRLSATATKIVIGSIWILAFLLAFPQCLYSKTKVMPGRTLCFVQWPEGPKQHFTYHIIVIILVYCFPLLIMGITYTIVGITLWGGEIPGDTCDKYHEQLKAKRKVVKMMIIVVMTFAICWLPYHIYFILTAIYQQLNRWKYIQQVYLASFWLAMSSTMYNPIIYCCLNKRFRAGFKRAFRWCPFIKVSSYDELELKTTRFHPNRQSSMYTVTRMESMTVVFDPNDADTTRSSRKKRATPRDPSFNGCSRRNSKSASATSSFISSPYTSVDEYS
Method: In studies on the binding of a ligand, the inhibition constant Ki is defined by the Cheng-Prusoff equation (in Receptor Binding in Drug Research, eds. R. A. O'BRIEN. Marcel Dekker, New York, 1986): [formula] [L]: ligand concentration Kd: dissociation constant of the ligand,
The affinity of the compounds of formula (I') for the tachykinin receptors was evaluated in vitro by several biochemical assays using radioligands:
3) The binding of [^125 I]His[MePhe^7 ]NKB to the NK3 receptors of rat cerebral cortex, of guinea pig cerebral cortex and of gerbil cerebral cortex as well as to the cloned human NK3 receptors expressed by CHO cells (Buell et al., FEBS Letters, 1992, 299, 90-95).
The assays were carried out according to X. Emonds-Alt et al. (Eur. J. Pharmacol., 1993, 250, 403-413).

NK3 receptor [1] = test: rotating behavior induced by intrastriatal administration of senktide in gerbils; type: in vivo; conditions: unilateral application in the gerbil striatum; agonist alone
Method: (§1) The compounds according to the present invention were also evaluated in vivo on two animal models.

NK3 receptor [2] = test: hypertension induced by intravenous or intracerebroventricular injection of senktide in guinea pigs; type: in vivo, guinea pig; conditions: agonist alone
Method: as §1

## CN(CC(CCCN1CCC(O)(c2ccccc2)CC1)c1ccc(Cl)c(Cl)c1)C(=O)c1ccccc1.Cl (stereo not shown) [Example 22 of Application EP 474561, N-Methyl-N-[2-(3,4-dichlorophenyl)-5-(4-hydroxy-4-phenylpiperid-1-yl)pentyl]benzamide hydrochloride]
Human NK3 receptor
  selectivity / specificity for the human NK3 receptor: high specificity

## Cl.O=C1CCC(CCN2CCC(O)(c3ccccc3)CC2)(c2ccc(Cl)c(Cl)c2)CN1Cc1ccccc1 (stereo not shown) [compound A, 5-[2-(4-hydroxy-4-phenylpiperid-1-yl)ethyl]-5-(3,4-dichlorophenyl)-1-benzylpiperid-2-one hydrochloride]
Human NK3 receptor
  selectivity / specificity for the human NK3 receptor: not selective for the human NK3 receptor

## CSCC[C@H](NC(=O)[C@H](CC(C)C)NC(=O)CNC(=O)[C@H](Cc1ccccc1)N(C)C(=O)[C@H](Cc1ccccc1)NC(=O)[C@H](CC(=O)O)NC(=O)CCC(=O)O)C(N)=O [senktide] (HELM PEPTIDE1{[O=C(O)CCC(=O)[*:2]].D.F.[meF].G.L.M.[am]}$$$$V2.0)
NK3 receptor [1]
  rotating behavior: strong contralateral rotations
NK3 receptor [2]
  hypertension: induces a hypertension
